# Several values for one entry are separate records, joined by “and”; a condition that tells them apart may be missing. Equal values may be shown once. Read-outs that look alike come from different tables or passages of the source.
# Assays:
# [1] = system: MCF-7 breast carcinoma cells; assay: Cellular ruthenium accumulation by atomic absorption spectrometry; type: cell-based; conditions: MCF-7, 20 μM
# Description: The cellular accumulation of ruthenium complexes was studied by atomic absorption spectrometry. The MCF-7 breast carcinoma cells were incubated with 16 and 20 for 1–24 h in DMEM with or without fetal bovine serum to reduce the binding of complexes with proteins. The accumulation was dependent on the linker’s length. […] The ruthenium complex entered the cells relatively fast; by 4 h, no notable further increase of the Ru content was observed (Figure 6). […] The negative effect of serum on the cellular Ru accumulation has been reported for other ruthenium species; however, significant effects were detectable only after longer exposure (24 h).
# The intracellular accumulation of metal-containing compounds was determined as described. […]
# For metal and protein quantification, pellets were resuspended in 250 µL of deionised water and lysed for 30 min with sonication. The protein content in lysates was determined by the Bradford method. […] Drying steps were adjusted, the atomisation temperature was set to 2400 °C, and the reading time was increased to 7 s. Ruthenium was quantified at 349.8945 nm. The mean integrated absorbance of triple injections was used throughout the measurements. Results (average of the two experiments) were expressed as nmol metal/mg protein.
# [2] = target: T1, TrxR1 in rat liver extracts (Rattus norvegicus, UniProt O89049); assay: Inhibition of TrxR1 in rat liver extracts; type: biochemical; conditions: for mechanism of inhibition: efficacy independent of DTNB concentration; for Ki: estimated according to the Cheng–Prusoff equation, read-out: Ki (inhibition constant); for IC50: rat liver extracts, read-out: TrxR1 IC50, µM (95% C.I.)
# T1 construct: measured in the extracts from the liver of male white outbred rats; from tissue; host or cells: liver of male white outbred rats (homogenate supernatant)
# T1 sequence (O89049 1-499): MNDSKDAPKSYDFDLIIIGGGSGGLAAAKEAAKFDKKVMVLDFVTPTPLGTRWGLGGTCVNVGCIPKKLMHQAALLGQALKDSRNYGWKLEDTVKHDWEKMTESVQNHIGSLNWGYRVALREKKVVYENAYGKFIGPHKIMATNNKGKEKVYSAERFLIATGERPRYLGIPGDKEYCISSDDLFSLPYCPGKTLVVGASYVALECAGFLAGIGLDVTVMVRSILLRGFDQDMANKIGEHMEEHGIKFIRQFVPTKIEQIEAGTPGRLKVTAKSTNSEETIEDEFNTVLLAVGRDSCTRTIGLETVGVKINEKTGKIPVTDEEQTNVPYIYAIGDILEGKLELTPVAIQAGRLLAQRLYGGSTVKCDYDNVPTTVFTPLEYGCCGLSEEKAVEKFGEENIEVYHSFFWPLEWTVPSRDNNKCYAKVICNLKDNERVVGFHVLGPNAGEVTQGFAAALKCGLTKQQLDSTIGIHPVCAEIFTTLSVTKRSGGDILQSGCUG
# Description: The TrxR1 enzyme was measured in the extracts from the liver of male white outbred rats homogenised in 50 mM of PBS containing 1 mM of EDTA and centrifuged for 15 min at 10,000 rpm at 4 °C. The supernatant was adjusted to 7.5 µg/mL of protein as determined with pyrogallol red. Then, 40 μL of the enzyme solution was mixed with 10 μL of the test compounds in a 96-well clear flat bottom plate. After 10 min at 25 °C, 30 μL of PBS containing 0.7 mg/mL of BSA and 0.8 mM of NADPH was added. After 15 min at 25 °C, 20 µL of DTNB solution was added to the desired final concentrations. Kinetic studies were carried out by assaying TrxR1 at various concentrations of DTNB. The optical density of the samples was measured with an Infinite M200 Pro reader (Tecan, Grödig, Austria) at 412 nm every 30 s for 20 min. The activity of TrxR1 was calculated as a reaction slope relative to the control wells using Prism 8.0 (GraphPad, Inc., San Diego, CA, USA).
# Balb/c mice = assay: In vivo acute toxicity; conditions: for Drug-induced lethality, died/survived (n = 6): 21 days
# Description: Finally, we tested the acute toxicity of complex 16 in Balb/c mice after a single bolus i.p. injection of the compound dissolved in saline. […] Animals were monitored for 21 days after injection. […] Mice in these cohorts had normal hair cover; no changes of nutritional behaviour were registered over the entire period of observation. In contrast, doses >80 mg/kg were lethal for individual animals. […] Deaths were registered over the next 1–2 days (Table 5). In each group, the survived animals remained without visible changes for up to 21 days after the injection of 16.
# The Balb/c female mice (8–10 weeks old, weight 20–22 g) were bred and hosted at the animal facility of the Blokhin Cancer Center. Mice were kept at 21 ± 1 °C, 50–60% humidity; food and water were added ad libitum. All manipulations were performed in accordance to the European Convention for the Protection of Vertebrate Animals used for Experimental and other Scientific Purposes (ETS 123). Compound 16 was injected i.p.; 70–110 mg/kg single bolus administration in 200 µL of saline. Each cohort contained six mice. Animals were monitored for 21 days after injection. General behavioural activity, nutritional habits, and the integrity of hair cover were the criteria of acute toxicity.
substance,measurement,setting,value
Na[trans-Ru(DMSO)(C30H37Cl2N5O)Cl4] [Compound 20],cellular Ru accumulation,[1]; 1–24 h,accumulated more readily than 16
same,mechanism of inhibition,[2],non-competitive
same,Ki,[2],15.3 µM
same,IC50,[2]; DTNB 0.06 mM,17 µM
same,IC50,[2]; DTNB 0.1 mM,15 µM
same,IC50,[2]; DTNB 2.5 mM,15 µM
Na[trans-Ru(DMSO)(C21H19Cl2N5O)Cl4] [Compound 16],cellular Ru accumulation with serum in the culture medium,[1]; serum present,only very low uptake
same,mechanism of inhibition,[2],non-competitive
same,Ki,[2],30.7 µM
same,IC50,[2]; DTNB 0.06 mM,24 µM
same,IC50,[2]; DTNB 0.1 mM,33 µM
same,IC50,[2]; DTNB 2.5 mM,33 µM
same,signs of acute toxicity,"Balb/c mice; 110 mg/kg i.p., initial 1–2 h after injection",Tremor and dyspnoea
same,"Drug-induced lethality, died/survived (n = 6)","Balb/c mice; single dose 70 mg/kg i.p., 70 mg/kg",no deaths and 0/6 *
same,"Drug-induced lethality, died/survived (n = 6)","Balb/c mice; single dose 80 mg/kg i.p., 80 mg/kg",no deaths and 0/6
same,"Drug-induced lethality, died/survived (n = 6)",Balb/c mice; single dose 90 mg/kg i.p.,2/6
same,"Drug-induced lethality, died/survived (n = 6)",Balb/c mice; single dose 100 mg/kg i.p.,2/6
same,"Drug-induced lethality, died/survived (n = 6)",Balb/c mice; single dose 110 mg/kg i.p.,4/6
